Laboratory results: US9278943B2, “Methods of using as analgesics 1-benzyl-1-hydroxy-2, 3-diamino-propyl amines, 3-benzyl-3-hydroxy-2-amino-propionic acid amides and related compounds” (Exonhit Therapeutics SA, priority 2005, dated 2016)
Counter-ions that a name gives are not always drawn. Like-named read-outs stand apart in the source and are kept apart here. Each block holds one compound with its values, some of them ahead of it.

Key:
[1] = system: tactile allodynia in the rat Chung model (L5/L6 spinal nerve ligation); assay: Chung model: reversal of tactile allodynia (von Frey hairs) after spinal nerve ligation; type: in vivo; conditions: read-out: Peak % Pain reversal: time post dose; for inhibition in vivo at 1 mg/kg: 1000 μg/kg IP; for inhibition in vivo at 0.3 mg/kg: 300 μg/kg IP
From the text: An art-accepted model or assay for measuring an analgesic effect of a compound in chronic pain (in particular peripheral neuropathy) is the model known as Kim and Chung 1992, Pain […], pp 355-363 (Chung model). This model involves the surgical ligation of the L5 (and optionally the L6) spinal nerves on one side in experimental animals. Rats recovering from the surgery gain weight and display a level of general activity similar to that of normal rats. However, these rats develop abnormalities of the foot, wherein the hindpaw is moderately everted and the toes are held together. More importantly, the hindpaw on the side affected by the surgery appears to become sensitive to low-threshold mechanical stimuli and will perceive pain instead of the faint sensation of touch. This sensitivity to normally non-painful touch, called “tactile allodynia”, develops within the first week after surgery and lasts for at least two months. The allodynia response includes lifting the affected hindpaw to escape from the stimulus, licking the paw and holding it in the air for many seconds. None of these responses is normally seen in the control group.
To produce the tactile allodynia, rats are anesthetized before surgery. The surgical site is shaved and prepared either with betadine or Novacaine. Incision is made from the thoracic vertebra Xlll down toward the sacrum. Muscle tissue is separated from the spinal vertebra (left side) at the L4-S2 levels. The L6 vertebra is located and the transverse process is carefully removed with a small rongeur to expose the L4-L6 spinal nerves. The L5 and L6 spinal nerves are isolated and tightly ligated with 6-0 silk thread. The same procedure is done on the right side as a control, except no ligation of the spinal nerves is performed.
After a complete hemostasis is confirmed, the wounds are sutured. A small amount of antibiotic ointment is applied to the incised area, and the rat is transferred to the recovery plastic cage under a regulated heat-temperature lamp.
On the day of the experiment, at least seven days after the surgery, typically six rats per test group are administered the test drugs by intraperitoneal (i.p.) injection or oral gavage (p.o.). For i.p. administration, the compounds are formulated in H2O and given in a volume of 1 ml/kg body weight by injecting into the intraperitoneal cavity. For p.o. administration, the compounds are formulated in H2O and given in a volume of 1 ml/kg body weight using an 18-gauge, 3 inch gavage needle that is slowly inserted through the esophagus into the stomach.
Tactile allodynia is assessed via von Frey hairs, which are a series of fine hairs with incremental differences in stiffness. Rats are placed in a plastic cage with a wire mesh bottom and allowed to acclimate for approximately 30 minutes. To establish the pre-drug baseline, the von Frey hairs are applied perpendicularly through the mesh to the mid-plantar region of the rats' hindpaw with sufficient force to cause slight buckling and held for 6-8 seconds. The applied force has been calculated to range from 0.41 to 15.1 grams. If the paw is sharply withdrawn, it is considered a positive response. A normal animal will not respond to stimuli in this range, but a surgically ligated paw will be withdrawn in response to a 1-2 gram hair. The 50% paw withdrawal threshold is determined using the method of Dixon, W. J., Ann. Rev. Pharmacol. Toxicol. 20:441-462 (1980) hereby incorporated by reference. Tactile allodynia is measured prior to and 15, 30, and 60 minutes after drug administration. The post-drug threshold is compared to the pre-drug threshold and the percent reversal of tactile sensitivity is calculated based on a normal threshold of 15.1 grams.
Table 1 below indicates the degree of pain reversal obtained in the Chung model with exemplary compounds used in accordance with the invention. […]

[2] = system: transient forebrain ischemia in rats; conditions: treatment after transient forebrain ischemia in rats; 8-arm maze task; cited from earlier work
synaptic function = conditions: cited from earlier work
[3] = system: glycosphingolipid biosynthesis; conditions: via inhibition of glycosphingolipid biosynthesis; cited from earlier work
GlcCer synthase (GCS) = biological target: T1, GlcCer synthase (GCS) (Homo sapiens, UniProt Q16739); conditions: cited from earlier work
T1 sequence (Q16739 1-394): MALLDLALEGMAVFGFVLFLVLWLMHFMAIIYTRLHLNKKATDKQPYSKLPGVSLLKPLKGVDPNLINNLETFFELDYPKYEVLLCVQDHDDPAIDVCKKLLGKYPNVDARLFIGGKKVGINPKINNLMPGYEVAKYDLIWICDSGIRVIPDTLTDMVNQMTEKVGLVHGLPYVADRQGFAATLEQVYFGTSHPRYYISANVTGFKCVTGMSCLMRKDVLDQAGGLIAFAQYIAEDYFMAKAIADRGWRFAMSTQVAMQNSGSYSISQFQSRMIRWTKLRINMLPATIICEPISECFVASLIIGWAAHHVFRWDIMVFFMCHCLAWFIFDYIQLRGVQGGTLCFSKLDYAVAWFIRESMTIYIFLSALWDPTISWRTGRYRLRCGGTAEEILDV

[4] = 1 h, 30 μg/kg IP, peak at 60 min post dose

Structure (SMILES): CCCCCCCCCC(=O)N[C@@H](CN1CCOCC1)[C@H](O)c1ccccc1 (racemic) [DL-erythro-PDMP, 1-Phenyl-2-decanoylamino-3-morpholino-1-propanol, reference compound]
inhibition in vivo at 1 mg/kg ([1]; 0.5 h, peak at 30 min post dose): 68%

melting point: 166.4 to 170.9 °C
Structure (SMILES): N[C@@H](CN1CCOCC1)[C@@H](O)c1ccccc1 (as salt: hydrochloride) [Compound 2, L-threo-2-Amino-3-morpholino-1-phenylpropan-1-ol dihydrochloride]

Structure (SMILES): CCCCCCCCCC(=O)N[C@@H](CN1CCOCC1)[C@@H](O)c1ccccc1 [L-threo-PDMP, (1S,2S)-1-phenyl-2-decanoylamino-3-morpholino-1-propanol, reference compound]
inhibition in vivo at 0.03 mg/kg ([1]; 0.5 h, 30 μg/kg PO, peak at 30 min post dose): 100%
deficit of a well learned spatial memory [2]: ameliorated the deficit

Structure (SMILES): N[C@@H](CN1CCCC1)[C@@H](O)c1ccc2c(c1)OCCO2 (racemic) [Compound 6, DL-threo-2-Amino-1-(2,3-dihydrobenzo[b][1,4]dioxin-6-yl)-3-(pyrrolidin-1-yl)propan-1-ol]
inhibition in vivo at 0.03 mg/kg [1, 4]: 92%

Structure (SMILES): N[C@@H](C(=O)N1CCCC1)[C@@H](O)c1ccccc1 (racemic) [Compound 16, DL-threo-2-Amino-3-hydroxy-3-phenyl-1-(pyrrolidin-1-yl)propan-1-one hydrochloride]
inhibition in vivo at 0.3 mg/kg ([1]; 1 h, peak at 60 min post dose): 93%

Structure (SMILES): COc1ccc([C@H](O)[C@@H](N)CN2CCCC2)cc1 (racemic) [Compound 9, DL-threo-2-Amino-1-(4-methoxyphenyl)-3-(pyrrolidin-1-yl)propan-1-ol]
inhibition in vivo at 0.03 mg/kg [1, 4]: 88%

Structure (SMILES): C[C@H](N[C@H](CN1CCOCC1)[C@H](O)c1ccccc1)c1ccccc1 [Compound 5, D-threo-2-((S)-1-Phenylethylamino)-3-morpholino-1-phenylpropan-1-ol dihydrochloride]
inhibition in vivo at 0.3 mg/kg ([1]; 1 h, peak at 60 min post dose): 85%

Structure (SMILES): N[C@@H](C(=O)N1CCCC1)[C@@H](O)c1ccc(Cl)c(Cl)c1 (racemic) [Compound 15, DL-threo-2-Amino-3-(3,4-dichlorophenyl)-3-hydroxy-1-(pyrrolidin-1-yl)propan-1-one hydrochloride]
inhibition in vivo at 0.3 mg/kg ([1]; 1 h, peak at 60 min post dose): 42%

Structure (SMILES): Cc1ccc([C@H](O)[C@@H](N)C(=O)N2CCCC2)cc1 (racemic) [Compound 17, DL-threo-2-Amino-3-hydroxy-1-(pyrrolidin-1-yl)-3-p-tolylpropan-1-one hydrochloride]
inhibition in vivo at 0.3 mg/kg ([1]; 1 h, peak at 60 min post dose): 100%

Structure (SMILES): CCCCCCCCCC(=O)N[C@H](CN1CCOCC1)[C@H](O)c1ccccc1 [D-threo-PDMP, 1-Phenyl-2-decanoylamino-3-morpholino-1-propanol]
effect on synaptic function (synaptic function): suppresses synaptic function
inhibition in vivo at 1 mg/kg ([1]; 1 h, peak at 60 min post dose): 77%
antitumor activity [3]: has antitumor activity

Structure (SMILES): CCCCCCCCCCCCCCCC(=O)N[C@H](CN1CCCC1)[C@H](O)c1ccc(O)cc1 [D-threo-4′-hydroxy-P4]
inhibition of GCS (GlcCer synthase (GCS)): one of the most potent inhibitor of GCS

Structure (SMILES): CCCCCCCCCC(=O)N[C@@H](CN1CCCC1)[C@@H](O)c1ccc2c(c1)OCCO2 (racemic) [Compound 7, N-(DL-threo-1-(2,3-dihydrobenzol[b][1,4]dioxin-6-yl)-1-hydroxy-3-(pyrrolidin-1-yl)propan-2-yl)decanamide]
inhibition in vivo at 0.001 mg/kg ([1]; 0.5 h, 1 μg/kg IP, peak at 30 min post dose): 26%

Structure (SMILES): N[C@@H](CN1CCOCC1)[C@@H](O)c1ccccc1 [Compound 2, L-threo-2-Amino-3-morpholino-1-phenylpropan-1-ol dihydrochloride]
inhibition in vivo at 0.1 mg/kg ([1]; 1 h, 100 μg/kg IP, peak at 60 min post dose): 91%

Structure (SMILES): O=C(N[C@H](CN1CCCC1)[C@H](O)c1ccccc1)OCc1ccccc1 [PBPP, D-threo-1-phenyl-2-benzyloxycarbonylamino-3-pyrrolidino-1-propanol]
inhibition of GCS (GlcCer synthase (GCS)): potent GCS inhibitor
